14 molecules from BindingDB's records for doi:10.1016/j.bmcl.2006.08.044 (Glaxosmithkline, 2006) can be followed below.

SMILES strings stand for the structures.

The target in this test is Integrin alpha-4/beta-1 [T112H] (Homo sapiens, UniProt P05556+P13612, T112H). Briefly: Jurkat J6 Scintillation Proximity Assay. Here is the method:
J6 cells (1 million cells/well) were allowed to coat wheat germ agglutinin coated SPA beads (Amersham, 1 mg/well) in assay buffer. Tritiated 3H Standard Compound A and test compounds were dissolved in an appropriate solvent and diluted in assay buffer. Data are presented as mean pKi.
A general note: In a scintillation proximity assay essentially only radioactivity close to the scintillant gives light.
As usually defined, the Ki is the dissociation constant of the complex between target and ligand, obtained from inhibition or displacement. A high value points to lower affinity. `Cc1ccccc1NC(=O)Nc1ccc(-c2cccn(Cc3ccc([C@@H](C)CC(=O)O)cc3)c2=O)cc1C` [(3S)-3-(4-{[3-(3-methyl-4-{[(2-methylphenyl)carbamoyl]amino}phenyl)-2-oxo-1,2-dihydropyridin-1-yl]methyl}phenyl)butanoic acid] returned a Ki of 2.51 nM.
Turning to `Cc1ccccc1NC(=O)Nc1ccc(-c2cccn(Cc3ccc([C@H](C)CC(=O)O)cc3)c2=O)c(Cl)c1` [(3R)-3-(4-{[3-(2-chloro-4-{[(2-methylphenyl)carbamoyl]amino}phenyl)-2-oxo-1,2-dihydropyridin-1-yl]methyl}phenyl)butanoic acid], the Ki is 0.79 nM.
On to `Cc1ccccc1NC(=O)Nc1ccc(-c2cccn(Cc3ccc([C@H](C)CC(=O)O)cc3)c2=O)c(C)c1` [(3R)-3-(4-{[3-(2-methyl-4-{[(2-methylphenyl)carbamoyl]amino}phenyl)-2-oxo-1,2-dihydropyridin-1-yl]methyl}phenyl)butanoic acid], for which the Ki is 2.51 nM.
The molecule `Cc1ccccc1NC(=O)Nc1ccc(-c2cccn(Cc3ccc([C@@H](C)CC(=O)O)cc3)c2=O)cc1Cl` [(3S)-3-(4-{[3-(3-chloro-4-{[(2-methylphenyl)carbamoyl]amino}phenyl)-2-oxo-1,2-dihydropyridin-1-yl]methyl}phenyl)butanoic acid] had an inhibition constant (Ki) of 2 nM.
As to `Cc1ccccc1NC(=O)Nc1ccc(-c2cccn(Cc3ccc([C@@H](C)CC(=O)O)cc3)c2=O)c(C)c1` [(3S)-3-(4-{[3-(2-methyl-4-{[(2-methylphenyl)carbamoyl]amino}phenyl)-2-oxo-1,2-dihydropyridin-1-yl]methyl}phenyl)butanoic acid], the affinity, expressed as Ki, was 19.9 nM.
`Cc1ccccc1NC(=O)Nc1ccc(-c2cccn(Cc3ccc([C@H](C)CC(=O)O)cc3)c2=O)cc1OC(F)(F)F` [(3R)-3-(4-{[3-(4-{[(2-methylphenyl)carbamoyl]amino}-3-(trifluoromethoxy)phenyl)-2-oxo-1,2-dihydropyridin-1-yl]methyl}phenyl)butanoic acid] displayed an inhibition constant (Ki) of 3.98 nM.
Regarding `CCOc1cc(-c2cccn(Cc3ccc([C@H](C)CC(=O)O)cc3)c2=O)ccc1NC(=O)Nc1ccccc1C` [(3R)-3-(4-{[3-(3-ethoxy-4-{[(2-methylphenyl)carbamoyl]amino}phenyl)-2-oxo-1,2-dihydropyridin-1-yl]methyl}phenyl)butanoic acid], affinity was put at a Ki of 2 nM.
Take `CCc1cc(-c2cccn(Cc3ccc([C@H](C)CC(=O)O)cc3)c2=O)ccc1NC(=O)Nc1ccccc1C` [(3R)-3-(4-{[3-(3-ethyl-4-{[(2-methylphenyl)carbamoyl]amino}phenyl)-2-oxo-1,2-dihydropyridin-1-yl]methyl}phenyl)butanoic acid]: affinity was put at a Ki of 6.31 nM.
Molecule `CCOc1cc(-c2cccn(Cc3ccc([C@@H](C)CC(=O)O)cc3)c2=O)ccc1NC(=O)Nc1ccccc1C` [(3S)-3-(4-{[3-(3-ethoxy-4-{[(2-methylphenyl)carbamoyl]amino}phenyl)-2-oxo-1,2-dihydropyridin-1-yl]methyl}phenyl)butanoic acid] came in with an inhibitory constant (Ki) of 5.01 nM.
In turn, `Cc1ccccc1NC(=O)Nc1ccc(-c2cccn(Cc3ccc([C@@H](C)CC(=O)O)cc3)c2=O)cc1OC(F)(F)F` [(3S)-3-(4-{[3-(4-{[(2-methylphenyl)carbamoyl]amino}-3-(trifluoromethoxy)phenyl)-2-oxo-1,2-dihydropyridin-1-yl]methyl}phenyl)butanoic acid] registered a Ki of 19.9 nM.
`Cc1ccccc1NC(=O)Nc1ccc(-c2cccn(Cc3ccc([C@H](C)CC(=O)O)cc3)c2=O)cc1Cl` [(3R)-3-(4-{[3-(3-chloro-4-{[(2-methylphenyl)carbamoyl]amino}phenyl)-2-oxo-1,2-dihydropyridin-1-yl]methyl}phenyl)butanoic acid] gave an inhibition constant Ki of 1 nM.
In turn, `Cc1ccccc1NC(=O)Nc1ccc(-c2cccn(Cc3ccc([C@@H](C)CC(=O)O)cc3)c2=O)c(Cl)c1` [(3S)-3-(4-{[3-(2-chloro-4-{[(2-methylphenyl)carbamoyl]amino}phenyl)-2-oxo-1,2-dihydropyridin-1-yl]methyl}phenyl)butanoic acid] registered a Ki of 25.1 nM.
`CCc1cc(-c2cccn(Cc3ccc([C@@H](C)CC(=O)O)cc3)c2=O)ccc1NC(=O)Nc1ccccc1C` [(3S)-3-(4-{[3-(3-ethyl-4-{[(2-methylphenyl)carbamoyl]amino}phenyl)-2-oxo-1,2-dihydropyridin-1-yl]methyl}phenyl)butanoic acid] came in with a Ki of 50.1 nM.
The value for `Cc1ccccc1NC(=O)Nc1ccc(-c2cccn(Cc3ccc([C@H](C)CC(=O)O)cc3)c2=O)cc1C` [(3R)-3-(4-{[3-(3-methyl-4-{[(2-methylphenyl)carbamoyl]amino}phenyl)-2-oxo-1,2-dihydropyridin-1-yl]methyl}phenyl)butanoic acid] was 1 nM.
